# Experimental data taken from the supplement of paper PMC10307832.
# Assays:
# Test in all cases: relative viability (nuclei count vs DMSO), 5 days (fraction); higher = more cells survive
# VX-11e + Trametinib = compound: CC1=CN=C(N=C1C2=CNC(=C2)C(=O)N[C@H](CO)C3=CC(=CC=C3)Cl)NC4=C(C=C(C=C4)F)Cl [VX-11e] + CC(=O)Nc1cccc(-n2c(=O)n(C3CC3)c(=O)c3c(Nc4ccc(I)cc4F)n(C)c(=O)c(C)c32)c1 [Trametinib] (partner 0.02 µM)
# Procedure, shortened: (§1)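 For relative viability, nuclei counts in treated wells were divided by those in vehicle wells. Lung cancer cell lines had been pin-tool dosed in 1536-well plates the day after seeding and cultured for 5 days, then fixed and stained in one step (final 0.05% Triton X-100, 1% formaldehyde, 1 ug/ml Hoechst) and imaged at 4×. Doses were one drug alone or a fixed anchor-drug dose plus five library-drug doses (not always all listed) in √10 steps, and values are duplicate-plate medians.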
# VX-11e + Bortezomib = compound: CC1=CN=C(N=C1C2=CNC(=C2)C(=O)N[C@H](CO)C3=CC(=CC=C3)Cl)NC4=C(C=C(C=C4)F)Cl [VX-11e] + CC(C)C[C@H](NC(=O)[C@H](Cc1ccccc1)NC(=O)c1cnccn1)B(O)O [Bortezomib] (partner 0.002 µM)
# Procedure, shortened: as §1
# VX-11e + Pictilisib = compound: CC1=CN=C(N=C1C2=CNC(=C2)C(=O)N[C@H](CO)C3=CC(=CC=C3)Cl)NC4=C(C=C(C=C4)F)Cl [VX-11e] + CS(=O)(=O)N1CCN(Cc2cc3nc(-c4cccc5[nH]ncc45)nc(N4CCOCC4)c3s2)CC1 [Pictilisib] (partner 1 µM)
# Procedure, shortened: as §1
# VX-11e + Olaparib = compound: CC1=CN=C(N=C1C2=CNC(=C2)C(=O)N[C@H](CO)C3=CC(=CC=C3)Cl)NC4=C(C=C(C=C4)F)Cl [VX-11e] + O=C(c1cc(Cc2n[nH]c(=O)c3ccccc23)ccc1F)N1CCN(C(=O)C2CC2)CC1 [Olaparib] (partner 8 µM)
# Procedure, shortened: as §1
cell line,measurement,setting,value
201T,relative viability,VX-11e + Trametinib; first compound 0.04 µM,0.737
same,relative viability,VX-11e + Trametinib; first compound 0.1265 µM,0.72
same,relative viability,VX-11e + Trametinib; first compound 0.4 µM,0.705
same,relative viability,VX-11e + Trametinib; first compound 1.265 µM,0.706
same,relative viability,VX-11e + Trametinib; first compound 4 µM,0.689
same,relative viability,VX-11e + Bortezomib; first compound 0.04 µM,1.05
same,relative viability,VX-11e + Bortezomib; first compound 0.1265 µM,1.11
same,relative viability,VX-11e + Bortezomib; first compound 0.4 µM,1.12
same,relative viability,VX-11e + Bortezomib; first compound 1.265 µM,1.02
same,relative viability,VX-11e + Bortezomib; first compound 4 µM,1.03
same,relative viability,VX-11e + Pictilisib; first compound 0.04 µM,0.599
same,relative viability,VX-11e + Pictilisib; first compound 0.1265 µM,0.658
same,relative viability,VX-11e + Pictilisib; first compound 0.4 µM,0.608
same,relative viability,VX-11e + Pictilisib; first compound 1.265 µM,0.542
same,relative viability,VX-11e + Pictilisib; first compound 4 µM,0.647
same,relative viability,VX-11e + Olaparib; first compound 0.04 µM,0.846
same,relative viability,VX-11e + Olaparib; first compound 0.1265 µM,0.809
same,relative viability,VX-11e + Olaparib; first compound 0.4 µM,0.832
same,relative viability,VX-11e + Olaparib; first compound 1.265 µM,0.792
same,relative viability,VX-11e + Olaparib; first compound 4 µM,0.773
A549,relative viability,VX-11e + Pictilisib; first compound 0.04 µM,0.481
same,relative viability,VX-11e + Pictilisib; first compound 0.1265 µM,0.475
same,relative viability,VX-11e + Pictilisib; first compound 0.4 µM,0.316
same,relative viability,VX-11e + Pictilisib; first compound 1.265 µM,0.0889
same,relative viability,VX-11e + Pictilisib; first compound 4 µM,0.0408
same,relative viability,VX-11e + Olaparib; first compound 0.04 µM,0.237
same,relative viability,VX-11e + Olaparib; first compound 0.1265 µM,0.246
same,relative viability,VX-11e + Olaparib; first compound 0.4 µM,0.0406
same,relative viability,VX-11e + Olaparib; first compound 1.265 µM,0.184
same,relative viability,VX-11e + Olaparib; first compound 4 µM,0.0866
A-427,relative viability,VX-11e + Trametinib; first compound 0.04 µM,0.73
same,relative viability,VX-11e + Trametinib; first compound 0.1265 µM,0.657
same,relative viability,VX-11e + Trametinib; first compound 0.4 µM,0.708
same,relative viability,VX-11e + Trametinib; first compound 1.265 µM,0.694
same,relative viability,VX-11e + Trametinib; first compound 4 µM,0.379
same,relative viability,VX-11e + Bortezomib; first compound 0.04 µM,1.11
same,relative viability,VX-11e + Bortezomib; first compound 0.1265 µM,0.955
same,relative viability,VX-11e + Bortezomib; first compound 0.4 µM,1.06
same,relative viability,VX-11e + Bortezomib; first compound 1.265 µM,1.04
same,relative viability,VX-11e + Bortezomib; first compound 4 µM,0.479
same,relative viability,VX-11e + Pictilisib; first compound 0.04 µM,0.454
same,relative viability,VX-11e + Pictilisib; first compound 0.1265 µM,0.468
same,relative viability,VX-11e + Pictilisib; first compound 0.4 µM,0.535
same,relative viability,VX-11e + Pictilisib; first compound 1.265 µM,0.422
same,relative viability,VX-11e + Pictilisib; first compound 4 µM,0.154
same,relative viability,VX-11e + Olaparib; first compound 0.04 µM,0.778
same,relative viability,VX-11e + Olaparib; first compound 0.1265 µM,0.778
same,relative viability,VX-11e + Olaparib; first compound 0.4 µM,0.816
same,relative viability,VX-11e + Olaparib; first compound 1.265 µM,0.7
same,relative viability,VX-11e + Olaparib; first compound 4 µM,0.509
ABC-1,relative viability,VX-11e + Bortezomib; first compound 0.04 µM,0.268
same,relative viability,VX-11e + Bortezomib; first compound 0.1265 µM,0.246
same,relative viability,VX-11e + Bortezomib; first compound 0.4 µM,0.262
same,relative viability,VX-11e + Bortezomib; first compound 1.265 µM,0.263
same,relative viability,VX-11e + Bortezomib; first compound 4 µM,0.263
same,relative viability,VX-11e + Pictilisib; first compound 0.04 µM,0.615
same,relative viability,VX-11e + Pictilisib; first compound 0.1265 µM,0.539
same,relative viability,VX-11e + Pictilisib; first compound 0.4 µM,0.809
same,relative viability,VX-11e + Pictilisib; first compound 1.265 µM,0.518
same,relative viability,VX-11e + Pictilisib; first compound 4 µM,0.466
same,relative viability,VX-11e + Olaparib; first compound 0.04 µM,1.22
same,relative viability,VX-11e + Olaparib; first compound 0.4 µM,0.667
same,relative viability,VX-11e + Olaparib; first compound 1.265 µM,0.771
same,relative viability,VX-11e + Olaparib; first compound 4 µM,0.926
BEN,relative viability,VX-11e + Trametinib; first compound 0.04 µM,1.08
same,relative viability,VX-11e + Trametinib; first compound 0.1265 µM,0.845
same,relative viability,VX-11e + Trametinib; first compound 0.4 µM,1.06
same,relative viability,VX-11e + Trametinib; first compound 1.265 µM,0.798
same,relative viability,VX-11e + Trametinib; first compound 4 µM,1.1
same,relative viability,VX-11e + Bortezomib; first compound 0.04 µM,0.543
same,relative viability,VX-11e + Bortezomib; first compound 0.1265 µM,0.779
same,relative viability,VX-11e + Bortezomib; first compound 0.4 µM,0.942
same,relative viability,VX-11e + Bortezomib; first compound 1.265 µM,0.533
same,relative viability,VX-11e + Bortezomib; first compound 4 µM,0.725
same,relative viability,VX-11e + Pictilisib; first compound 0.04 µM,0.465
same,relative viability,VX-11e + Pictilisib; first compound 0.1265 µM,0.533
same,relative viability,VX-11e + Pictilisib; first compound 0.4 µM,0.628
same,relative viability,VX-11e + Pictilisib; first compound 1.265 µM,0.392
same,relative viability,VX-11e + Pictilisib; first compound 4 µM,0.468
same,relative viability,VX-11e + Olaparib; first compound 0.04 µM,1.04
same,relative viability,VX-11e + Olaparib; first compound 0.1265 µM,0.935
same,relative viability,VX-11e + Olaparib; first compound 0.4 µM,1.11
same,relative viability,VX-11e + Olaparib; first compound 1.265 µM,0.904
same,relative viability,VX-11e + Olaparib; first compound 4 µM,0.994
CAL-12T,relative viability,VX-11e + Trametinib; first compound 0.04 µM,0.235
same,relative viability,VX-11e + Trametinib; first compound 0.1265 µM,0.243
same,relative viability,VX-11e + Trametinib; first compound 0.4 µM,0.285
same,relative viability,VX-11e + Trametinib; first compound 1.265 µM,0.229
same,relative viability,VX-11e + Trametinib; first compound 4 µM,0.228
same,relative viability,VX-11e + Bortezomib; first compound 0.4 µM,0.91
same,relative viability,VX-11e + Bortezomib; first compound 1.265 µM,0.715
same,relative viability,VX-11e + Bortezomib; first compound 4 µM,0.509
same,relative viability,VX-11e + Pictilisib; first compound 0.4 µM,0.393
same,relative viability,VX-11e + Pictilisib; first compound 1.265 µM,0.524
same,relative viability,VX-11e + Pictilisib; first compound 4 µM,0.295
same,relative viability,VX-11e + Olaparib; first compound 0.04 µM,0.802
same,relative viability,VX-11e + Olaparib; first compound 0.1265 µM,0.718
same,relative viability,VX-11e + Olaparib; first compound 0.4 µM,0.732
same,relative viability,VX-11e + Olaparib; first compound 1.265 µM,0.618
same,relative viability,VX-11e + Olaparib; first compound 4 µM,0.316
COR-L23,relative viability,VX-11e + Trametinib; first compound 0.04 µM,0.481
same,relative viability,VX-11e + Trametinib; first compound 0.1265 µM,0.441
same,relative viability,VX-11e + Trametinib; first compound 0.4 µM,0.323
same,relative viability,VX-11e + Trametinib; first compound 1.265 µM,0.328
same,relative viability,VX-11e + Trametinib; first compound 4 µM,0.188
same,relative viability,VX-11e + Bortezomib; first compound 0.04 µM,1.29
same,relative viability,VX-11e + Bortezomib; first compound 0.1265 µM,0.967
same,relative viability,VX-11e + Bortezomib; first compound 0.4 µM,1.12
same,relative viability,VX-11e + Bortezomib; first compound 1.265 µM,0.667
same,relative viability,VX-11e + Bortezomib; first compound 4 µM,0.348
same,relative viability,VX-11e + Pictilisib; first compound 0.04 µM,0.83
same,relative viability,VX-11e + Pictilisib; first compound 0.1265 µM,0.72
same,relative viability,VX-11e + Pictilisib; first compound 0.4 µM,0.52
same,relative viability,VX-11e + Pictilisib; first compound 1.265 µM,0.382
same,relative viability,VX-11e + Pictilisib; first compound 4 µM,0.184
same,relative viability,VX-11e + Olaparib; first compound 0.04 µM,0.445
same,relative viability,VX-11e + Olaparib; first compound 0.1265 µM,0.463
same,relative viability,VX-11e + Olaparib; first compound 0.4 µM,0.486
same,relative viability,VX-11e + Olaparib; first compound 1.265 µM,0.491
same,relative viability,VX-11e + Olaparib; first compound 4 µM,0.207
COR-L 105,relative viability,VX-11e + Trametinib; first compound 0.04 µM,0.425
same,relative viability,VX-11e + Trametinib; first compound 0.1265 µM,0.459
same,relative viability,VX-11e + Trametinib; first compound 0.4 µM,0.369
same,relative viability,VX-11e + Trametinib; first compound 1.265 µM,0.423
same,relative viability,VX-11e + Trametinib; first compound 4 µM,0.403
same,relative viability,VX-11e + Bortezomib; first compound 0.04 µM,0.814
same,relative viability,VX-11e + Bortezomib; first compound 0.1265 µM,0.826
same,relative viability,VX-11e + Bortezomib; first compound 0.4 µM,0.6
same,relative viability,VX-11e + Bortezomib; first compound 1.265 µM,0.338
same,relative viability,VX-11e + Bortezomib; first compound 4 µM,0.226
same,relative viability,VX-11e + Pictilisib; first compound 0.04 µM,0.341
same,relative viability,VX-11e + Pictilisib; first compound 0.1265 µM,0.41
same,relative viability,VX-11e + Pictilisib; first compound 0.4 µM,0.362
same,relative viability,VX-11e + Pictilisib; first compound 1.265 µM,0.29
same,relative viability,VX-11e + Pictilisib; first compound 4 µM,0.322
same,relative viability,VX-11e + Olaparib; first compound 0.04 µM,0.666
same,relative viability,VX-11e + Olaparib; first compound 0.1265 µM,0.694
same,relative viability,VX-11e + Olaparib; first compound 0.4 µM,0.708
same,relative viability,VX-11e + Olaparib; first compound 1.265 µM,0.839
same,relative viability,VX-11e + Olaparib; first compound 4 µM,0.396
Calu-6,relative viability,VX-11e + Bortezomib; first compound 0.04 µM,1.08
same,relative viability,VX-11e + Bortezomib; first compound 0.1265 µM,1.04
same,relative viability,VX-11e + Bortezomib; first compound 0.4 µM,1.03
same,relative viability,VX-11e + Bortezomib; first compound 1.265 µM,0.333
same,relative viability,VX-11e + Bortezomib; first compound 4 µM,0.206
same,relative viability,VX-11e + Pictilisib; first compound 0.04 µM,1.03
same,relative viability,VX-11e + Pictilisib; first compound 0.1265 µM,0.874
same,relative viability,VX-11e + Pictilisib; first compound 0.4 µM,0.907
same,relative viability,VX-11e + Pictilisib; first compound 1.265 µM,0.261
same,relative viability,VX-11e + Pictilisib; first compound 4 µM,0.0991
same,relative viability,VX-11e + Olaparib; first compound 0.04 µM,0.672
same,relative viability,VX-11e + Olaparib; first compound 0.1265 µM,0.579
same,relative viability,VX-11e + Olaparib; first compound 0.4 µM,0.562
same,relative viability,VX-11e + Olaparib; first compound 1.265 µM,0.31
same,relative viability,VX-11e + Olaparib; first compound 4 µM,0.108
